Test results as given in PMC10385824, “Antiproliferative and Tubulin-Destabilising Effects of 3-(Prop-1-en-2-yl)azetidin-2-Ones and Related Compounds in MCF-7 and MDA-MB-231 Breast Cancer Cells” (Pharmaceuticals, 2023).
Where two headings read alike, the source gives them in different places.

Tests used:
[1] = test system: MCF-7 human breast cancer cells; details: MCF-7; for IC50: read-out: Antiproliferative Activity IC50, 72 h, eight concentrations (0.001–50 mM [sic]), mean ± SEM, Table 5
Method: (§1) All biochemical assays were performed in triplicate for the determination of mean values reported. The human breast carcinoma cell line MCF-7 was purchased from the European Collection of Animal Cell Cultures (ECACC) and was cultured in Eagle’s minimum essential medium with 10% fetal bovine serum, 2 mM L-glutamine and 100 μg/mL penicillin/streptomycin. The medium was supplemented with 1% non-essential amino acids. […] All cells were sub-cultured 3 times/week by trypsinisation.
(§2) Cells were seeded at a density of 5 × 10^3 cells/well (MCF-7) in triplicate in 96-well plates. […] Cell proliferation for MCF-7 and MDA-MB-231 cells was analysed using the Alamar Blue assay (Invitrogen Corp.). […] Experiments were performed in triplicate on at least three separate occasions.

[2] = test system: MDA-MB-231 human breast cancer cells; assay: Alamar Blue cell viability (antiproliferative) assay; format: cell-based; details: 72 h, eight concentrations 0.001-50 μM, mean ± SEM, read-out: Antiproliferative Activity IC50
[3] = test system: MCF-7 human breast cancer cells; assay: cells
Method: as §1, §2

[4] = test system: purified bovine brain tubulin; assay: Tubulin polymerization assay (light scattering, BK006 kit); format: biochemical; details: compound at 10 μM; for Fold Reduction in Vmax: relative to vehicle
Method: Tubulin polymerization was monitored using the BK006 kit obtained from Cytoskeleton Inc. (Denver, CO, USA). The values reported represent the average values determined from two independent assays. Purified bovine brain tubulin (>99%, 3 mg/mL) in buffer containing PIPES (80 mM, pH 6.9), EGTA (0.5 mM), MgCl2 (2 mM), GTP (1 mM) and glycerol (10%) was incubated at 37 °C in vehicle (1% DMSO or EtOH (v/v) in dH2O) or with compounds 9h, 9q, 9s, 10h, 10p, 10r, 11h, 11p, 11r, 17f (all at 10 µM concentration); CA-4 (10 μM) was used as control. In this assay, light scattering is related to the concentration of polymerised microtubules produced. Tubulin assembly was monitored turbidimetrically at 340 nm at 37 °C in a Spectramax 340 PC spectrophotometer (Molecular Devices, Sunnyvale, CA, USA).

MDA-MB-231/ATCC = assay: NCI-60 SRB screen, breast cancer; format: cell-based, human; details: Homo sapiens, MDA-MB-231, 48 h, read-out: Antiproliferative Activity IC50
[5] = test system: NCI 60 human cancer cell line panel; assay: NCI 60 cell line screen (SRB), panel values; details: Homo sapiens, 60 cell
[6] = MCF7, read-out: Antiproliferative Activity IC50, MCF-7, eight concentrations 0.001–50 μM, mean ± SEM, Table 3
[7] = MCF7, read-out: Antiproliferative Activity IC50, MCF-7, eight concentrations 0.001–50 μM, mean ± SEM, Table 4
[8] = MCF7, 72 h, read-out: Antiproliferative Activity IC50, MCF-7, 72 h, eight concentrations (0.001–50 mM [sic]), mean ± SEM, Table 5
[9] = MCF7, 72 h, read-out: Antiproliferative Activity IC50, MCF-7, 72 h, eight concentrations 1–50 μM, mean ± SEM, Table 2
[10] = MCF7, read-out: Antiproliferative Activity IC50

## C=C(C)C1C(=O)N(c2ccc(OCC)cc2)C1c1cc(OC)c(OC)c(OC)c1 (stereo not drawn) [9u, 1-(4-Ethoxyphenyl)-3-(prop-1-en-2-yl)-4-(3,4,5-trimethoxyphenyl)azetidin-2-one]
other
  melting point: 106 to 108 °C
[1]
  antiproliferative activity in words: minimal

## C=CC[C@@H]1C(=O)N(c2cc(OC)c(OC)c(OC)c2)[C@H]1c1ccc(C)cc1 (relative stereo) [10g, 3-Allyl-4-p-tolyl-1-olyl-1-(3,4,5-trimethoxyphenyl)azetidin-2-one]
[2]
  IC50: 377 ± 60 nM
[3]; [6]
  IC50: 199 ± 30 nM

## C=CC=CC1C(=O)N(c2cc(OC)c(OC)c(OC)c2)C1c1ccc(C)cc1 (stereo not drawn) [11g, 3-(Buta-1,3-dienyl)-4-p-tolyl-1-(3,4,5-trimethoxyphenyl)azetidin-2-one]
[2]
  IC50: 160 ± 14 nM
other
  melting point: 88 to 89 °C
[3]; [7]
  IC50: 200 ± 40 nM

## COC(=O)C1=C(C(=O)OC)C(C2C(=O)N(c3cc(OC)c(OC)c(OC)c3)C2c2cccc3ccccc23)CC=C1 (stereo not drawn) [22a, Dimethyl-6-(1-(3,4,5-trimethoxyphenyl)-2-(naphthalen-1-yl)-4-oxoazetidin-3-yl)cyclohexa-1,3-diene-1,2-dicarboxylate]
[1]
  IC50: 142000 ± 20300 nM

## CCOC(=O)CC1C(=O)N(c2cc(OC)c(OC)c(OC)c2)C1c1ccc(OC)cc1 (stereo not drawn) [17f, Ethyl-2-(1-(3,4,5-trimethoxyphenyl)-2-(4-methoxyphenyl)-4-oxoazetidin-3-yl)acetate]
[4]; 37 °C, 340 nm
  Vmax: 0.0038 mOD/min
[4]
  Fold Reduction in Vmax: 2.2
[3]; [8]
  IC50: 35 ± 3 nM

## COc1ccc(C2C(C3C=CCC4C(=O)OC(=O)C43)C(=O)N2c2cc(OC)c(OC)c(OC)c2)cc1O (stereo not drawn) [21d, 3a,4,7,7a-Tetrahydro-4-(2-(3-hydroxy-4-methoxyphenyl)-1-(3,4,5-trimethoxyphenyl)-4-oxoazetidin-3-yl)isobenzofuran-1,3-dione]
other
  melting point: 224 to 225 °C
[3]; [8]
  IC50: 91100 ± 14500 nM

## C=C/C=C/C1C(=O)N(c2cc(OC)c(OC)c(OC)c2)C1c1ccc(OC)c([N+](=O)[O-])c1 (stereo not drawn) [11q, (E)-3-(Buta-1,3-dien-1-yl)-4-(4-methoxy-3-nitrophenyl)-1-(3,4,5-trimethoxyphenyl)azetidin-2-one]
other
  melting point: 88 to 90 °C
[3]; [7]
  IC50: 511 ± 90 nM

## C=CCC1C(=O)N(c2cc(OC)c(OC)c(OC)c2)C1c1cccc2ccccc12 (stereo not drawn) [10m, 3-Allyl-4-naphthalen-1-yl-1-(3,4,5-trimethoxyphenyl)azetidin-2-one]
[2]
  IC50: 656 ± 130 nM
other
  melting point: 139 to 140 °C
[3]; [6]
  IC50: 210 ± 26 nM

## COC(=O)C1=C(C(=O)OC)C(C2C(=O)N(c3cc(OC)c(OC)c(OC)c3)C2c2cccc3ccccc23)CC=C1 (stereo not drawn) [22b, Dimethyl-6-(1-(3,4,5-trimethoxyphenyl)-2-(naphthalen-1-yl)-4-oxoazetidin-3-yl)cyclohexa-1,3-diene-1,2-dicarboxylate]
[1]
  IC50: 9690 ± 1020 nM

## C=C/C=C/C1C(=O)N(c2cc(OC)c(OC)c(OC)c2)C1c1ccc(Cl)cc1 (stereo not drawn) [11b, (E)-3-(Buta-1,3-dien-1-yl)-4-(4-chlorophenyl)-1-(3,4,5-trimethoxyphenyl)azetidin-2-one]
other
  melting point: 145 to 147 °C
[3]; [7]
  IC50: 315 ± 40 nM

## C=C(C)C1C(=O)N(c2ccc(OC)cc2)C1c1ccccc1 (stereo not drawn) [9w, 1-(4-Methoxyphenyl)-4-phenyl-3-(prop-1-en-2-yl)azetidin-2-one]
other
  melting point: 111 to 113 °C
[3]; [9]
  IC50: 33 ± 5 nM

## C=CCC1C(=O)N(c2cc(OC)c(OC)c(OC)c2)C1c1ccc(OCc2ccccc2)cc1 (stereo not drawn) [10l, 3-Allyl-4-(4-benzyloxyphenyl)-1-(3,4,5-trimethoxyphenyl)azetidin-2-one]
[2]
  IC50: 486 ± 60 nM
other
  melting point: 140 to 141 °C
[3]; [6]
  IC50: 7390 ± 670 nM

## C=C/C=C/C1C(=O)N(c2cc(OC)c(OC)c(OC)c2)C1c1ccccc1 (stereo not drawn) [11f, (E)-3-(Buta-1,3-dien-1-yl)-4-phenyl-1-(3,4,5-trimethoxyphenyl)azetidin-2-one]
other
  melting point: 90 to 93 °C
[3]; [7]
  IC50: 19400 ± 4030 nM

## C=CCC1C(=O)N(c2cc(OC)c(OC)c(OC)c2)C1c1ccc(F)cc1 (stereo not drawn) [10d, 3-Allyl-4-(4-fluorophenyl)-1-(3,4,5-trimethoxyphenyl) azetidin-2-one]
other
  melting point: 89 to 90 °C
[3]; [10]
  IC50: 33800 ± 9040 nM

## C=C/C=C/C1C(=O)N(c2cc(OC)c(OC)c(OC)c2)C1c1ccc(Br)cc1 (stereo not drawn) [11c, (E)-4-(4-Bromophenyl)-3-(buta-1,3-dien-1-yl)-1-(3,4,5-trimethoxyphenyl)azetidin-2-one]
other
  melting point: 153 to 155 °C
[3]; [7]
  IC50: 428 ± 42 nM

## COc1ccc(C2C(CC=Cc3ccccc3)C(=O)N2c2cc(OC)c(OC)c(OC)c2)cc1 (stereo not drawn) [17a, 3-Cinnamyl-4-(4-methoxyphenyl)-1-(3,4,5-trimethoxyphenyl)azetidin-2-one]
other
  melting point: 103 to 104 °C
[3]; [8]
  IC50: 332 ± 40 nM

## COc1cc(N2C(=O)C(C3C=CCC4C(=O)N(c5ccccc5)C(=O)C43)C2c2ccc(Cl)cc2)cc(OC)c1OC (stereo not drawn) [21a, 4-(2-(4-Chlorophenyl)-1-(3,4,5-trimethoxyphenyl)-4-oxoazetidin-3-yl)-3a,4,7,7a-tetrahydro-2-phenyl-2H-isoindole-1,3-dione]
other
  melting point: 208 to 210 °C
[3]; [8]
  IC50: 106000 ± 13900 nM

## COc1cc(N2C(=O)C(C3C=CCC4C(=O)OC(=O)C43)C2c2ccc(Br)cc2)cc(OC)c1OC (stereo not drawn) [21b, 4-(2-(4-Bromophenyl)-1-(3,4,5-trimethoxyphenyl)-4-oxoazetidin-3-yl)-3a,4,7,7a-tetrahydroisobenzofuran-1,3-dione]
other
  melting point: 242 to 244 °C
[3]; [8]
  IC50: 96200 ± 13500 nM

## C=C/C=C/C1C(=O)N(c2cc(OC)c(OC)c(OC)c2)C1c1ccc(OCC)cc1 (stereo not drawn) [11i, (E)-3-(Buta-1,3-dien-1-yl)-4-(4-ethoxyphenyl)-1-(3,4,5-trimethoxyphenyl)-azetidin-2-one]
other
  melting point: 73 to 75 °C
[3]; [7]
  IC50: 261 ± 50 nM

## C=C/C=C/C1C(=O)N(c2cc(OC)c(OC)c(OC)c2)C1c1ccc(OC)c(O)c1 (stereo not drawn) [11p, (E)-3-(Buta-1,3-dien-1-yl)-4-(3-hydroxy-4-methoxyphenyl)-1-(3,4,5-trimethoxyphenyl)azetidin-2-one]
[4]
  Fold Reduction in Vmax: 1.1
MDA-MB-231/ATCC
  IC50: 113 nM
[3]; [10]
  IC50: 61 ± 8 nM
[5]; read-out: Mean GI50, mean over all NCI 60 cell lines
  GI50: 288 nM
[5]; read-out: Mean LC50
  CC50: 91200 nM
[5]; read-out: Mean TGI
  IC (TGI (total growth inhibition)): 31600 nM

## C=C(C)C1C(=O)N(c2cc(OC)c(OC)c(OC)c2)C1c1ccc([N+](=O)[O-])cc1 (stereo not drawn) [9a, 4-(4-Nitrophenyl)-1-(3,4,5-trimethoxyphenyl)-3-(prop-1-en-2-yl)azetidin-2-one]
other
  melting point: 129 to 130 °C
[3]; [9]
  IC50: 4960 ± 690 nM

## C=C(C)C1C(=O)N(c2cc(OC)c(OC)c(OC)c2)C1c1ccc(Br)cc1 (stereo not drawn) [9c, 4-(4-Bromophenyl)-1-(3,4,5-trimethoxyphenyl)-3-(prop-1-en-2-yl)azetidine-2-one]
other
  melting point: 130 to 131 °C
[1]
  antiproliferative activity in words: sub-micromolar

## C=C(C)C1C(=O)N(c2cc(OC)c(OC)c(OC)c2)C1c1ccc(N(C)C)cc1 (stereo not drawn) [9e, 4-(4-Dimethylaminophenyl)-1-(3,4,5-trimethoxyphenyl)-3-(prop-1-en-2-yl)azetidine-2-one]
[1]
  antiproliferative activity in words: sub-micromolar
[3]; [9]
  IC50: 5950 ± 920 nM

## C=C/C=C/C1C(=O)N(c2cc(OC)c(OC)c(OC)c2)C1c1cccc2ccccc12 (stereo not drawn) [11m, (E)-3-(Buta-1,3-dien-1-yl)-4-(naphthalen-1-yl)-1-(3,4,5-trimethoxyphenyl)azetidin-2-one]
other
  melting point: 113 to 114 °C
[3]; [7]
  IC50: 576 ± 100 nM

## C=C(C)C1C(=O)N(c2cc(OC)c(OC)c(OC)c2)C1c1ccccc1 (stereo not drawn) [9f, 4-Phenyl-1-(3,4,5-trimethoxyphenyl)-3-(prop-1-en-2-yl)azetidin-2-one]
other
  melting point: 108 to 109 °C
[3]; [9]
  IC50: 494 ± 140 nM

## C=C(C)C1C(=O)N(c2cc(OC)c(OC)c(OC)c2)C1c1ccc(OCC)cc1 (stereo not drawn) [9i, 4-(4-Ethoxyphenyl)-1-(3,4,5-trimethoxyphenyl)-3-(prop-1-en-2-yl)azetidin-2-one]
[2]
  IC50: 171 ± 11 nM
other
  melting point: 100 to 102 °C
[3]; MCF7, MCF-7
  IC50: 81 nM

## CCCCOc1ccc(C2C(C3C=CCC4C(=O)N(c5ccccc5)C(=O)C43)C(=O)N2c2cc(OC)c(OC)c(OC)c2)cc1 (stereo not drawn) [21c, 4-(2-(4-Butoxyphenyl)-4-oxo-1-(3,4,5-trimethoxyphenyl)azetidin-3-yl)-2-phenyl-3a,4,7,7a-tetrahydro-1H-isoindole-1,3(2H)-dione]
other
  melting point: 163 to 164 °C
[3]; [8]
  IC50: 38600 ± 4900 nM

## C=C(C)C1C(=O)N(c2cc(OC)c(OC)c(OC)c2)C1c1ccc(F)cc1 (stereo not drawn) [9d, 4-(4-Fluorophenyl)-1-(3,4,5-trimethoxyphenyl)-3-(prop-1-en-2-yl)azetidin-2-one]
other
  melting point: 99 to 100 °C
[3]; [9]
  IC50: 691 ± 100 nM
